Earlier results on one molecule are cited in patent US9630917B2, “Cysteamine prodrugs, pharmaceutical compositions thereof, and methods of use” (priority 2015, dated 2017).

For this data set the following is noted: oral absorption; Smolin et al., Ped Res. 1988; 23, 616-620.

Structures are written as SMILES.

With `NCCS` [cysteamine], the absolute bioavailability entry is reported as “about 10%”.
